{
  "source": "PubChem BioAssay AID1963965",
  "about": "(Molecular Pharmacology Branch, DTP, NCI, 2024)",
  "system": "996289-038-R-J1-PDC spheroid viability",
  "test": "Anticancer human tumor 996289-038-R-J1-PDC patient-derived colon adenocarcinoma cell line growth inhibition [PI3K]",
  "settings": "spheroids with HUVEC and MSC; for IC50: curve of first compound; for viability, T/C: stronger effect = lower value",
  "how_it_was_run": "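Combination activity was assessed by viability in multicellular tumor spheroids carrying HUVEC and MSC components. Agents were tested with PI3K inhibitors from a Cmax-based top dose (or 10 microM) downward in half-log increments.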",
  "key": {"[1]": {"settings": "second compound 0.00316 µM, first compound 0.0316 µM"}, "[2]": {"settings": "second compound 0.00316 µM, first compound 0.1 µM"}, "[3]": {"settings": "second compound 0.01 µM, first compound 0.0316 µM"}, "[4]": {"settings": "second compound 0.01 µM, first compound 0.1 µM"}, "[5]": {"settings": "second compound 0.0316 µM, first compound 0.0316 µM"}, "[6]": {"settings": "second compound 0.0316 µM, first compound 0.1 µM"}, "[7]": {"settings": "second compound 0.1 µM, first compound 0.0316 µM"}, "[8]": {"settings": "second compound 0.1 µM, first compound 0.1 µM"}, "[9]": {"settings": "second compound 0.316 µM, first compound 0.0316 µM"}, "[10]": {"settings": "second compound 0.316 µM, first compound 0.1 µM"}, "[11]": {"settings": "second compound 1 µM, first compound 0.0316 µM"}, "[12]": {"settings": "second compound 1 µM, first compound 0.1 µM"}},
  "data": [
    {"compound": "CC(C)n1nc(-c2ccc3oc(N)nc3c2)c2c(N)ncnc21", "note": "+ CC(Nc1ccc2c(c1)OCCn1cc(N3C(=O)OCC3C(F)F)nc1-2)C(N)=O;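 note: spheroids exposed to compounds for seven days before viability read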;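 for viability, T/C: luminescence used as a proxy for viable cell amount; percent viability relative to DMSO vehicle control as 100%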", "values": [
      {"measurement": "IC50", "setting": "second compound 0.00316 µM", "value": 51.2, "unit": "nM"},
      {"measurement": "IC50", "setting": "second compound 0.01 µM", "value": 46.1, "unit": "nM"},
      {"measurement": "IC50", "setting": "second compound 0.0316 µM", "value": 31.4, "unit": "nM"},
      {"measurement": "IC50", "setting": "second compound 0.1 µM", "value": 23.4, "unit": "nM"},
      {"measurement": "IC50", "setting": "second compound 0.316 µM", "value": 8.43, "unit": "nM"},
      {"measurement": "IC50", "setting": "second compound 1 µM", "value": 5.5, "unit": "nM"},
      {"measurement": "viability, T/C", "setting": "second compound 0.00316 µM, first compound 0.000316 µM", "value": 95.9, "unit": "%"},
      {"measurement": "viability, T/C", "setting": "second compound 0.00316 µM, first compound 0.001 µM", "value": 82.8, "unit": "%"},
      {"measurement": "viability, T/C", "setting": "second compound 0.00316 µM, first compound 0.00316 µM", "value": 90.5, "unit": "%"},
      {"measurement": "viability, T/C", "setting": "second compound 0.00316 µM, first compound 0.01 µM", "value": 81.1, "unit": "%"},
      {"measurement": "viability, T/C", "setting": "[1]", "value": 64.5, "unit": "%"},
      {"measurement": "viability, T/C", "setting": "[2]", "value": 29.7, "unit": "%"},
      {"measurement": "viability, T/C", "setting": "second compound 0.01 µM, first compound 0.000316 µM", "value": 94.8, "unit": "%"},
      {"measurement": "viability, T/C", "setting": "second compound 0.01 µM, first compound 0.001 µM", "value": 93.2, "unit": "%"},
      {"measurement": "viability, T/C", "setting": "second compound 0.01 µM, first compound 0.00316 µM", "value": 84.6, "unit": "%"},
      {"measurement": "viability, T/C", "setting": "second compound 0.01 µM, first compound 0.01 µM", "value": 75.9, "unit": "%"},
      {"measurement": "viability, T/C", "setting": "[3]", "value": 62.4, "unit": "%"},
      {"measurement": "viability, T/C", "setting": "[4]", "value": 28.5, "unit": "%"},
      {"measurement": "viability, T/C", "setting": "second compound 0.0316 µM, first compound 0.000316 µM", "value": 100, "unit": "%"},
      {"measurement": "viability, T/C", "setting": "second compound 0.0316 µM, first compound 0.001 µM", "value": 95.6, "unit": "%"},
      {"measurement": "viability, T/C", "setting": "second compound 0.0316 µM, first compound 0.00316 µM", "value": 79.1, "unit": "%"},
      {"measurement": "viability, T/C", "setting": "second compound 0.0316 µM, first compound 0.01 µM", "value": 63.2, "unit": "%"},
      {"measurement": "viability, T/C", "setting": "[5]", "value": 54.7, "unit": "%"},
      {"measurement": "viability, T/C", "setting": "[6]", "value": 29.1, "unit": "%"},
      {"measurement": "viability, T/C", "setting": "second compound 0.1 µM, first compound 0.000316 µM", "value": 85, "unit": "%"},
      {"measurement": "viability, T/C", "setting": "second compound 0.1 µM, first compound 0.001 µM", "value": 75.3, "unit": "%"},
      {"measurement": "viability, T/C", "setting": "second compound 0.1 µM, first compound 0.00316 µM", "value": 67.8, "unit": "%"},
      {"measurement": "viability, T/C", "setting": "second compound 0.1 µM, first compound 0.01 µM", "value": 62, "unit": "%"},
      {"measurement": "viability, T/C", "setting": "[7]", "value": 48.5, "unit": "%"},
      {"measurement": "viability, T/C", "setting": "[8]", "value": 23.4, "unit": "%"},
      {"measurement": "viability, T/C", "setting": "second compound 0.316 µM, first compound 0.000316 µM", "value": 64, "unit": "%"},
      {"measurement": "viability, T/C", "setting": "second compound 0.316 µM, first compound 0.001 µM", "value": 67.8, "unit": "%"},
      {"measurement": "viability, T/C", "setting": "second compound 0.316 µM, first compound 0.00316 µM", "value": 57.2, "unit": "%"},
      {"measurement": "viability, T/C", "setting": "second compound 0.316 µM, first compound 0.01 µM", "value": 43.9, "unit": "%"},
      {"measurement": "viability, T/C", "setting": "[9]", "value": 39.8, "unit": "%"},
      {"measurement": "viability, T/C", "setting": "[10]", "value": 17.1, "unit": "%"},
      {"measurement": "viability, T/C", "setting": "second compound 1 µM, first compound 0.000316 µM", "value": 52.3, "unit": "%"},
      {"measurement": "viability, T/C", "setting": "second compound 1 µM, first compound 0.001 µM", "value": 60.9, "unit": "%"},
      {"measurement": "viability, T/C", "setting": "second compound 1 µM, first compound 0.00316 µM", "value": 57.2, "unit": "%"},
      {"measurement": "viability, T/C", "setting": "second compound 1 µM, first compound 0.01 µM", "value": 41.6, "unit": "%"},
      {"measurement": "viability, T/C", "setting": "[11]", "value": 33.7, "unit": "%"},
      {"measurement": "viability, T/C", "setting": "[12]", "value": 16, "unit": "%"}
    ]},
    {"compound": "CCCS(=O)(=O)Nc1ccc(F)c(C(=O)c2c[nH]c3ncc(-c4ccc(Cl)cc4)cc23)c1F", "note": "+ CC(Nc1ccc2c(c1)OCCn1cc(N3C(=O)OCC3C(F)F)nc1-2)C(N)=O", "values": [
      {"measurement": "IC50", "setting": "second compound 0.00316 µM", "value": 5890, "unit": "nM"},
      {"measurement": "IC50", "setting": "second compound 0.01 µM", "value": 6120, "unit": "nM"},
      {"measurement": "IC50", "setting": "second compound 0.0316 µM", "value": 5810, "unit": "nM"},
      {"measurement": "IC50", "setting": "second compound 0.1 µM", "value": 5110, "unit": "nM"},
      {"measurement": "IC50", "setting": "second compound 0.316 µM", "value": 4380, "unit": "nM"},
      {"measurement": "IC50", "setting": "second compound 1 µM", "value": 1670, "unit": "nM"},
      {"measurement": "viability, T/C", "setting": "[1]", "value": 108, "unit": "%"},
      {"measurement": "viability, T/C", "setting": "[2]", "value": 89.7, "unit": "%"},
      {"measurement": "viability, T/C", "setting": "second compound 0.00316 µM, first compound 0.316 µM", "value": 86.3, "unit": "%"},
      {"measurement": "viability, T/C", "setting": "second compound 0.00316 µM, first compound 1 µM", "value": 96.7, "unit": "%"},
      {"measurement": "viability, T/C", "setting": "second compound 0.00316 µM, first compound 3.16 µM", "value": 83.4, "unit": "%"},
      {"measurement": "viability, T/C", "setting": "second compound 0.00316 µM, first compound 10 µM", "value": 21.2, "unit": "%"},
      {"measurement": "viability, T/C", "setting": "[3]", "value": 101, "unit": "%"},
      {"measurement": "viability, T/C", "setting": "[4]", "value": 95.8, "unit": "%"},
      {"measurement": "viability, T/C", "setting": "second compound 0.01 µM, first compound 0.316 µM", "value": 97.8, "unit": "%"},
      {"measurement": "viability, T/C", "setting": "second compound 0.01 µM, first compound 1 µM", "value": 101, "unit": "%"},
      {"measurement": "viability, T/C", "setting": "second compound 0.01 µM, first compound 3.16 µM", "value": 88, "unit": "%"},
      {"measurement": "viability, T/C", "setting": "second compound 0.01 µM, first compound 10 µM", "value": 21.4, "unit": "%"},
      {"measurement": "viability, T/C", "setting": "[5]", "value": 95, "unit": "%"},
      {"measurement": "viability, T/C", "setting": "[6]", "value": 98.5, "unit": "%"},
      {"measurement": "viability, T/C", "setting": "second compound 0.0316 µM, first compound 0.316 µM", "value": 96.6, "unit": "%"},
      {"measurement": "viability, T/C", "setting": "second compound 0.0316 µM, first compound 1 µM", "value": 99.4, "unit": "%"},
      {"measurement": "viability, T/C", "setting": "second compound 0.0316 µM, first compound 3.16 µM", "value": 82.5, "unit": "%"},
      {"measurement": "viability, T/C", "setting": "second compound 0.0316 µM, first compound 10 µM", "value": 20.6, "unit": "%"},
      {"measurement": "viability, T/C", "setting": "[7]", "value": 72.4, "unit": "%"},
      {"measurement": "viability, T/C", "setting": "[8]", "value": 71.8, "unit": "%"},
      {"measurement": "viability, T/C", "setting": "second compound 0.1 µM, first compound 0.316 µM", "value": 74.6, "unit": "%"},
      {"measurement": "viability, T/C", "setting": "second compound 0.1 µM, first compound 1 µM", "value": 73.4, "unit": "%"},
      {"measurement": "viability, T/C", "setting": "second compound 0.1 µM, first compound 3.16 µM", "value": 75.8, "unit": "%"},
      {"measurement": "viability, T/C", "setting": "second compound 0.1 µM, first compound 10 µM", "value": 16.9, "unit": "%"},
      {"measurement": "viability, T/C", "setting": "[9]", "value": 74.8, "unit": "%"},
      {"measurement": "viability, T/C", "setting": "[10]", "value": 74.3, "unit": "%"},
      {"measurement": "viability, T/C", "setting": "second compound 0.316 µM, first compound 0.316 µM", "value": 76.6, "unit": "%"},
      {"measurement": "viability, T/C", "setting": "second compound 0.316 µM, first compound 1 µM", "value": 68, "unit": "%"},
      {"measurement": "viability, T/C", "setting": "second compound 0.316 µM, first compound 3.16 µM", "value": 65.1, "unit": "%"},
      {"measurement": "viability, T/C", "setting": "second compound 0.316 µM, first compound 10 µM", "value": 15.1, "unit": "%"},
      {"measurement": "viability, T/C", "setting": "[11]", "value": 63.1, "unit": "%"},
      {"measurement": "viability, T/C", "setting": "[12]", "value": 72.3, "unit": "%"},
      {"measurement": "viability, T/C", "setting": "second compound 1 µM, first compound 0.316 µM", "value": 61.7, "unit": "%"},
      {"measurement": "viability, T/C", "setting": "second compound 1 µM, first compound 1 µM", "value": 52.1, "unit": "%"},
      {"measurement": "viability, T/C", "setting": "second compound 1 µM, first compound 3.16 µM", "value": 44.9, "unit": "%"},
      {"measurement": "viability, T/C", "setting": "second compound 1 µM, first compound 10 µM", "value": 12.1, "unit": "%"}
    ]}
  ]
}
